Results published in patent US20030144347A1, “Method for treating autoimmune disease” (priority 2001, published 2003).

Columns and labels:
Format in all cases: in vivo, human
[1] = test system: patient suffering from rheumatoid arthritis; test: Case reports: patients suffering from rheumatoid arthritis; settings: Example 17; before Topamax
Method: A patient suffering from rheumatoid arthritis was administered 25 mg per day of topiramate with an increase every 10 days by 25 mg until 25 mg, 3 times per day, was achieved. The patient previously took 3 or 4 tablets per day of lortab, seven 2.5 mg tablets of methotrexate once a week, 200 mg per day of minocycline and 10 mg per day of prednisone.
An adolescent patient suffering from rheumatoid arthritis began taking 15 mg per day of topiramate for one week, which was then increased by 15 mg weekly until 45 mg per day, in three divided dosages of 15 mg each, was reached. The patient previously took 3 to 5 mg of prednisone daily.
A patient suffering from rheumatoid arthritis with a positive rheumatic factor about 3 decades earlier, at which time they also experienced polyarthritis and Renaud's phenomena, was treated with prednisone 40 mg per day for six months and was then weaned off the prednisone after one year. In the ensuing years, psoriasis developed on both elbows which was worse in the winter. They were an avid golfer and experienced painful swelling and stiffness of both wrists and hands, especially the left, and back pain and stiffness. […] They were begun on Topamax 15 mg a day which was increased weekly by 15 mg until 45 mg per day was taken in divided doses.

[2] = test system: patient suffering from multiple sclerosis; test: Case reports: patients suffering from multiple sclerosis treated with topiramate; settings: Example 18; patient's own attempt
Method: A patient suffering from multiple sclerosis was administered 15 mg per day of topiramate. The dosage was increased after 15 days to 30 mg per day. At 15 mg, the patient's involuntary stretch rigid response stopped and the patient was able to get out of bed without falling backward when their feet touched the floor for the first time in nine years.
The patient previously took trazadone 100 mg at bedtime, clonazepan 1 mg three times a day, citalapram 40 mg each morning, gabapentrin 600 mg four times a day, and synthroid 25 mcg per day for two years. They had refused steroids and interferon because of side effects.
The Topamax was increased to 15 mg at bedtime and they reported “no bad bladder accidents” and that their leg and foot cramps had disappeared. […] They were discharged on Topamax 15 mg at bedtime along with previous medications. The patient was much improved medically and emotionally.
The patient returned four weeks later walking with a cane, having worked “10 to 14 hours per day and exhausted from my move with little sleep during the past month”. They reported “insatiable itching all over my body wherever my clothes touch the skin” which […] unsuccessfully tried to treat with cetirizine. […] said […] felt “dizzy, weak, Charlie horses in arches of feet and toes, unable to stand for more than 10 minutes before starting to have gait problems, problems sleeping, having trouble mentally and urine leaking”. […] working diagnoses are Axis I Bipolar disorder, not otherwise specified Axis III multiple sclerosis. […]

[3] = test system: patient with rapid mood swings and severe intense itching; test: Case report: patient with rapid mood swings and severe intense itching; settings: Example 19
Method: A patient presented with rapid mood swings and a complaint of severe intense itching from clothing tags and some clothing, which began over twenty years ago. They were begun on gabapenten which was increased to 300 mg qid. […] Their itching was unchanged. They were begun on Topamax 12.5 mg at bedtime which was increased weekly by 12.5 mg until 50 mg.

## COc1ccc2cc([C@H](C)C(=O)O)ccc2c1 [Naproxen]
[1]
  effect on painful swelling and stiffness: ineffective

## O=C(O)COCCN1CCN(C(c2ccccc2)c2ccc(Cl)cc2)CC1 (centres unmarked) [cetirizine]
[2]
  treatment of itching: unsuccessfully

## NCC1(CC(=O)O)CCCCC1 [gabapenten]
[3]; 300 mg qid
  mood: a little calmer
[3]; 300 mg qid, in two weeks
  weight gained: five
[3]; increased to 300 mg qid
  itching: unchanged
